Source: article PMC4129108, “The natural triterpene 3β,6β,16β-trihydroxy-lup-20(29)-ene obtained from the flowers of Combretum leprosum induces apoptosis in MCF-7 breast cancer cells” (BMC Complementary and Alternative Medicine, 2014)
Values after ≈ are worked out from the molar mass of the structure shown.

How the values were obtained:
[1] = system: S. cerevisiae EG103 (SOD-WT); assay: Yeast survival assay, EG103 (SOD-WT); type: cell-based, Saccharomyces cerevisiae; details: positive control H2O2 5 mM, 1 h in PBS
Description: (§1) Media, solutions and buffers were prepared according to Burke et al.. YPD medium (0.5% yeast extract, 2% peptone, 2% glucose) was used for routine growth. Synthetic medium SC (0.67% yeast nitrogen base, 0.1% ammonium sulfate, 2% glucose) supplemented with the appropriate amino acids and bases ([…]) was used for the detection of mutations.
(§2) Stationary phase (STAT) cultures were obtained by inoculation of a single colony into liquid YPD. We chose to work in the stationary phase of growth because this resembles most cells of multicellular organisms in important aspects: (i) most energy comes from mitochondrial respiration; (ii) the cells have left the active cell cycle and have entered the Go phase; and (iii) damage accumulates over time.
(§3) STAT cells (1 × 10^8 cells/mL) were exposed to TTHL (10–500 μg/mL) and incubated under growth conditions for 1 h in PBS at 30°C. Cells were then washed and treated with H2O2 (5 mM) in PBS for another hour. Suitable aliquots were plated in triplicate on solid YPD (2–3 days, 30°C) and colony-forming units were counted. Sensitivity was expressed as a percentage of survival in relation to the negative control (solvent).

[2] = system: S. cerevisiae EG118 (sod1Δ); assay: Yeast survival assay, EG118 (sod1Δ); type: cell-based, Saccharomyces cerevisiae; details: positive control H2O2 5 mM, 1 h in PBS
Description: as §1, §2, §3

[3] = system: S. cerevisiae EG110 (sod2Δ); assay: Yeast survival assay, EG110 (sod2Δ); type: cell-based, Saccharomyces cerevisiae; details: positive control H2O2 5 mM, 1 h in PBS
Description: as §1, §2, §3

[4] = system: S. cerevisiae EG133 (sod1Δsod2Δ); assay: Yeast survival assay, EG133 (sod1Δsod2Δ); type: cell-based, Saccharomyces cerevisiae; details: positive control H2O2 5 mM, 1 h in PBS
Description: as §1, §2, §3

[5] = system: MRC5 (lung normal fibroblast); assay: XTT cell viability assay, MRC5 normal fibroblasts; type: cell-based; details: Homo sapiens, MRC5, 24 h treatment
Description: (§4) The human cell lines MCF-7 (breast adenocarcinoma), HepG2 (hepatoma), T24 (bladder cancer), CACO-2 (colorectal adenocarcinoma) and MRC5 (lung normal fibroblast) were obtained from the Rio de Janeiro Cell Bank (Rio de Janeiro, RJ, Brazil). The HCT116 cell (colorectal carcinoma), and HT29 cell (colorectal adenocarcinoma) were kindly provided by Dr. Annette K. Larsen (Institut National de la Santé et de la Recherche Médicale - INSERM, Paris, França). All cell lines except MCF-7 were grown in DMEM supplemented with 10% or 20% (for CACO-2) FBS, 100 units.mL^-1 penicillin and 100 μg.mL^-1 streptomycin at 37°C in a humidified atmosphere of 5% CO2. MCF-7 cells were maintained in RPMI-1640 supplemented with 20% FBS at the same conditions described above.
(§5) The cytotoxic potential of the TTHL was evaluated by the XTT assay in human tumor cell lines as well as in MRC5 normal fibroblasts. Cells (1 × 10^4 cells) were seeded on 96-well plates in growth medium and incubated overnight. Afterwards, TTHL (0.5, 1.0, 2.5, 5.0, and 10 μg/mL) was added to each well and incubated for 24, 48, 72, and 120 h. Mitoxantrone, a cytostatic anthracenedione that intercalates in DNA and increases the incidence of double-strand breaks by stabilizing the cleavable complex of topoisomerase II and DNA, was used as positive control. At the end of each treatment, cell viability was assessed according to the manufacturer’s instructions. Briefly, after discarding the medium, 1 mL of XTT labeling mixture was added to the cells and incubated for 2 h at 37°C. Absorbance was measured with a SpectraMax reader (Bio-Rad, USA) at a test wavelength of 492 nm (A492) and a reference wavelength of 690 nm (A690). The final result corresponds to A492-A690. The absorbance of negative control cells was set as 100% viability, and the values for treated cells were calculated as a percentage of the control.
(§6) The IC20, IC50, and IC80 values and their 95% confidence intervals (CI 95%) were obtained by nonlinear regression using GraphPad Prism v5 program (Intuitive Software for Science, San Diego, CA, USA). Selective index (SI) was calculated by IC50 in MRC5 cells/IC50 in tumoral cells. All experiments were independently repeated at least three times, with triplicate samples for each treatment. Results are expressed as means ± standard deviation (SD). Data were analyzed by one-way analysis of variance (ANOVA), and means were compared using Tukey test, with P ≤ 0.05 considered as statistically significant.

[6] = system: MCF-7 (breast adenocarcinoma); assay: XTT cell viability assay, MCF-7; type: cell-based, human; details: Homo sapiens, MCF7; MCF-7, 24 h treatment, XTT
Description: as §4, §5, §6

[7] = system: HepG2 (hepatoma); assay: XTT cell viability assay, HepG2; type: cell-based, human; details: Homo sapiens; HepG2, 24 h treatment, XTT
Description: as §4, §5, §6

[8] = system: T24 (bladder cancer); assay: XTT cell viability assay, T24; type: cell-based, human; details: Homo sapiens; T24, 24 h treatment, XTT
Description: as §4, §5, §6

[9] = system: HCT116 cell (colorectal carcinoma); assay: XTT cell viability assay, HCT116; type: cell-based, human; details: Homo sapiens, HCT-116; HCT116, 24 h treatment, XTT
Description: as §4, §5, §6

[10] = system: HT29 cell (colorectal adenocarcinoma); assay: XTT cell viability assay, HT29; type: cell-based, human; details: Homo sapiens, HT-29; HT29, 24 h treatment, XTT
Description: as §4, §5, §6

[11] = system: CACO-2 (colorectal adenocarcinoma); assay: XTT cell viability assay, CACO-2; type: cell-based, human; details: Homo sapiens; CACO-2, 24 h treatment, XTT
Description: as §4, §5, §6

[12] = system: tumor cell lines; assay: XTT cell viability assay, panel of tumor cell lines; type: cell-based; details: Homo sapiens, read-out: IC50 values in tumor cell lines (range over the panel)
Description: as §4
The cytotoxic potential of the TTHL was evaluated by the XTT assay in human tumor cell lines as well as in MRC5 normal fibroblasts. Cells (1 × 10^4 cells) were seeded on 96-well plates in growth medium and incubated overnight. […] At the end of each treatment, cell viability was assessed according to the manufacturer’s instructions. […] Absorbance was measured with a SpectraMax reader (Bio-Rad, USA) at a test wavelength of 492 nm (A492) and a reference wavelength of 690 nm (A690). […] The absorbance of negative control cells was set as 100% viability, and the values for treated cells were calculated as a percentage of the control. […]

SMILES | survival (percentage in relation to negative control) [1] [%] | survival (percentage in relation to negative control) [2] [%] | survival (percentage in relation to negative control) [3] [%] | survival (percentage in relation to negative control) [4] [%] | IC50 [5] [µg/mL] | IC50 [6] [µg/mL] | IC50 [7] [µg/mL] | IC50 [8] [µg/mL] | IC50 [9] [µg/mL] | IC50 [10] [µg/mL] | IC50 [11] [µg/mL] | IC50 [12] [µg/mL]
OO [H2O2, hydrogen peroxide, reference compound] | 63.03 ± 4.12 | 16.27 ± 4.88 | 19.10 ± 4.03 | 19.33 ± 2.10 | – | – | – | – | – | – | – | –
O=C1c2c(O)ccc(O)c2C(=O)c2c(NCCNCCO)ccc(NCCNCCO)c21 [MXT, mitoxantrone, reference compound] | – | – | – | – | 2.88 ± 1.44 (≈ 6.48 µM) | 0.87 ± 1.59 (≈ 1.96 µM) | 3.5 ± 0.39 (≈ 7.87 µM) | 2.5 ± 0.62 (≈ 5.62 µM) | 0.61 ± 0.67 (≈ 1.37 µM) | 0.88 ± 2.33 (≈ 1.98 µM) | 2.4 ± 1.81 (≈ 5.4 µM) | 0.61 to 3.5 (≈ 1.37 to 7.87 µM)
